# In paper PMC7046148 (Scientific Reports, 2020):
# Key:
# Gibco hiPSCs = assay: qRT-PCR characterization of LPM differentiation, Gibco hiPSCs in 2D; type: cell-based, human; conditions: 20 µM thalidomide, 2 d in APEL2+GSKi; for effect on marker gene expression during LPM differentiation (words): 2D
# Method: The TaqMan hPSC Scorecard Assay (Thermo Fisher) was used to assess the pluripotency of cultured Gibco hiPSCs and the XCL-1 hiPSC clones as described. The assay outputs scores for self-renewal, ectoderm, endoderm, and mesoderm genes.
# Gibco hiPSCs were seeded in small clumps at ~10% confluence on Matrigel-coated dishes and were cultured for 1 d in mTeSR-1. On the following day after seeding, the medium was switched to APEL2 basal medium (Stem Cell Technologies) supplemented with 5 µM CHIR99021 (Stem Cell Technologies) (hereafter referred to as APEL2 + GSKi). hiPSCs were cultured for the described duration in APEL2 + GSKi and were characterized by qRT-PCR and immunofluorescence. Briefly, RNA was extracted using buffer RLT supplemented with 1% β-mercaptoethanol and purified from hiPSCs using RNeasy kit (Qiagen) with optional DNase step. Reverse transcription was carried out using the high capacity cDNA reverse transcription kit (ThermoFisher). cDNA was characterized using Qubit HS dsDNA kit (Invitrogen), and qRT-PCR was carried out using TaqMan primer/probes (Thermo Fisher) and fast advanced master mix (Thermo Fisher) per manufacturer’s instructions on either the Viia7 or QuantStudio 5 (Thermo Fisher). Assay results were normalized to ACTB housekeeping control and the undifferentiated control (day 0) via the 2^−ΔΔCT method. The capacity of Gibco hiPSCs and XCL-1 hiPSCs to undergo LPM differentiation was also assessed using qRT-PCR for markers of pluripotency (NANOG, POU5F1), primitive streak (T, SOX17), LPM (FOXF1, GATA4), and limb mesenchyme (PITX1, TBX5).
# Data represent the mean ± log2 fold change, normalized to the ACTB control and the DMSO control via the 2^−ΔΔCT method, relative to DMSO control from 4 independent experiments. Asterisks denote statistical significance via 2-tailed Student’s t-test relative to a nominal mean log2 fold change of ‘0’ (α = 0.05). PS = primitive streak; LPM = lateral plate mesoderm.
# Legend for Supplementary Tables 1-3
# Supplementary tables 1-3 contain qRT-PCR data obtained using the Taqman hPSC Scorecard Assay (Thermo Fisher).Lysates of Gibco and XCL-1 hiPSCs were purified to RNA using RNeasy procedure (Qiagen). Reverse transcription was performed using the cDNA high capacity reverse transcription kit(Invitrogen). dsDNA content was calculated using Qubit dsDNA HS kit(Invitrogen). cDNA was loaded into hPSC pluripotency panel pre-loaded 384 well plates, and plates were run on Viia7 using standard curve method. The hPSC scorecard analysis software (Thermo Fisher) was used to calculate the relative gene expression scores forself-renewal genes, ectoderm genes, endoderm genes, and mesoderm genes. Scores are provided from pooled lysates from replicate wells ofa single experiment. Cells were cultured as described herein. […]
# [1] = system: mouse embryonic stem cells; conditions: cited from earlier work
compound,measurement,setting,value
"O=C1CCC(N2C(=O)c3ccccc3C2=O)C(=O)N1 (centres unmarked) [Thalidomide, thalidomide]",effect on marker gene expression during LPM differentiation (words),Gibco hiPSCs,did not affect expression of the other measured markers
same,effect on marker gene expression during LPM differentiation (words),Gibco hiPSCs; listed as thalidomide,significantly reduced the expression of both FOXF1 and SOX17
same,reduction of FOXF1 expression,Gibco hiPSCs; hPSC Scorecard panel,~ 60%
same,reduction of SOX17 expression,Gibco hiPSCs; hPSC Scorecard panel,> 95%
same,concentration for nonspecific toxicity in the mEST,[1],above 400 µM
